We go through 18 compounds from EP4759807A1, “PROTEOLYSIS TARGETING CHIMERA COMPOUND FOR DEGRADING IRAK4 AND USE THEREOF” (Shenzhen Zhongge Biological Technology Co., Ltd., priority 2023, dated 2025).

Like-named read-outs stand apart in the source and are kept apart here.

The experiment deals with T1, IRAK4 (Homo sapiens, UniProt Q9NWZ3).
T1 sequence (Q9NWZ3 1-460): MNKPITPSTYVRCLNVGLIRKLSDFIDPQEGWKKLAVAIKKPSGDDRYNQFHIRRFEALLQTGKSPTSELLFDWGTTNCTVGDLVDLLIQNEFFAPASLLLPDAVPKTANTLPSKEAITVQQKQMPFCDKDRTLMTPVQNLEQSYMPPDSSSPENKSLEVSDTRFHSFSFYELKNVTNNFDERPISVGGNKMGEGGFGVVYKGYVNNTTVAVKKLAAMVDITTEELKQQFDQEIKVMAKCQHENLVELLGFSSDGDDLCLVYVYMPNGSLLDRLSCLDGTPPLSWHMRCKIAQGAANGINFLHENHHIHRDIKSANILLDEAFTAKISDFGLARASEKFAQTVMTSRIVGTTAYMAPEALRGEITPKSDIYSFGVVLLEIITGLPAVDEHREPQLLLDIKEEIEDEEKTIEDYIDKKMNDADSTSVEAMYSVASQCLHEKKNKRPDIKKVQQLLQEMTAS
Put plainly: Hibit fluorescence detection of proteolysis (IRAK4-HiBiT in HEK293T cells). It counts as cell-based. Details: host or cells: HEK293T (ATCC). The conditions noted are these: for Dmax: HEK-293T. Here is the method: Utilizing HiBiT tag technology, the HiBiT tag-containing sequence (Seq. ID. No. 1, Beijing Tsingke Biotech Co., Ltd.) was connected to the IRAK4 plasmid (Seq. ID. No. 2, Beijing Tsingke Biotech Co., Ltd.), and the plasmid was transfected into HEK293T cells (ATCC). […] The 6-well plate that was incubated overnight was taken out. After the plate was left at room temperature for 15 min, the obtained mixture was added dropwise to the 6-well plate. […] Culture was performed at 37°C and 5% CO2 for 24 h. The 384-well plate was taken out and equilibrated to room temperature. 40 µL of Nano-Glo® HiBiT Lytic Detection System (Promega N3030) was added to each well and incubated at room temperature for 15 min. […] Prism 9.3 software was used to perform fitting analysis for data, and non-linear fitting (non-liner inhibitor (Bell-shaped)) and four parameters (4 parameter) were used, and the parameters was as follows: Span1 = Plateau1−Dip [formula] Span2 = Plateau2−Dip [formula] Section1 = Span1/(1+10^(∧)((LogEC50_1−X)*nH1)) [formula] Section2 = Span2/(1+10^(∧)((X−LogEC50_2)*nH2)) [formula]
The equation was as follows: Y=Dip+Section1+Section2. • Seq. ID. No. 1 ([…]), other DNA, synthetic construct, sequence length 33; • Seq. ID. No. 2 [formula]

Where [1] appears, read: IRAK4-HiBiT, HEK293T cells, 24 h, read-out: DC50.
Where [2] appears, read: IRAK4-HiBiT, HEK293T cells, 24 h.

Compound `Cn1c(=O)n(C2CCC(=O)NC2=O)c2cccc(N3CCN(C4CCN(C[C@H]5CC[C@H](n6cc(-n7cc(-c8cnn9ccc(N%10CCC(C)(O)CC%10)nc89)nn7)c(C(F)F)n6)CC5)CC4)CC3)c21` (stereo partly drawn) [Compound 236] registered a Dmax above 80%. Moreover, the DC50 under setting [1] is below 0.5 nM.

`Cn1c(=O)n(C2CCC(=O)NC2=O)c2cccc(N3CCC4(CCCN(C[C@H]5CC[C@H](n6cc(-n7cc(-c8cnn9ccc(N%10CCOCC%10)nc89)nn7)c(C(F)F)n6)CC5)C4)CC3)c21` (stereo partly drawn) [Example 53, 3-(4-(2-(((1r,4r)-4-(3-(difluoromethyl)-4-(4-(5-morpholinopyrazolo[1,5-a]pyrimidin-3-yl)-1H-1,2,3-triazol-1-yl)-1H-pyrazol-1-yl)cyclohexyl)methyl)-2,9-diazaspiro[5.5]undecan-9-yl)-3-methyl-2-oxo-2,3-dihydro-1H-benzo[d]imidazol-1-yl)piperidine-2,6-dione] had a Dmax of 70 to 80%. In addition, the DC50 under setting [2] was in the range of 0.5 to 1 nM.

As to `CN1CCN(c2ccn3ncc(-c4cn(-c5cn([C@H]6CC[C@H](CN7CCN(c8cccc9c8n(C)c(=O)n9C8CCC(=O)NC8=O)CC7)CC6)nc5C(F)F)nn4)c3n2)CC1` (stereo partly drawn) [Compound 227], the Dmax lay in the range of 60 to 70%. Under setting [1], the DC50 fell in the range of 1 to 5 nM.

Compound `Cn1c(=O)n(C2CCC(=O)NC2=O)c2cccc(CN3CCC4(CC3)CN(C[C@H]3CC[C@H](n5cc(-n6cc(-c7cnn8ccc(N9CCOCC9)nc78)nn6)c(C(F)F)n5)CC3)CCO4)c21` (stereo partly drawn) [Example 5] had a Dmax below 60%. Besides, the DC50 under setting [2] is below 0.5 nM.

Compound `Cn1c(=O)n(C2CCC(=O)NC2=O)c2cccc(N3CCN(C4CCN(C[C@H]5CC[C@H](n6cc(-n7cc(-c8cnn9cc(C#N)cnc89)nn7)c(C(F)F)n6)CC5)CC4)CC3)c21` (stereo partly drawn) [Compound 206] yielded a Dmax below 60%. Further, under setting [1], the DC50 lay within 0.5 to 1 nM.

In turn, `NC(=O)c1cnn2c(-c3cn(-c4cn([C@H]5CC[C@H](CN6CCN(c7ccc8c(c7)CN(C7CCC(=O)NC7=O)C8=O)CC6)CC5)nc4C(F)F)nn3)ccc2c1` (stereo partly drawn) [Example 72, 7-(1-(3-(difluoromethyl)-1-((1r,4r)-4-((4-(2-(2,6-dioxopiperidin-3-yl)-1-oxoisoindolin-5-yl)piperazin-1-yl)methyl)cyclohexyl)-1H-pyrazol-4-yl)-1H-1,2,3-triazol-4yl)pyrrolo[1,2-b]pyridazine-3-carboxamide] gave a Dmax of 60 to 70%. Also, the DC50 under setting [2] is below 0.5 nM.

For `Cn1c(=O)n(C2CCC(=O)NC2=O)c2cccc(N3CCN(C4CCN(C[C@H]5CC[C@H](n6cc(-n7cc(-c8cnn9ccc(NCC%10CC%10)nc89)nn7)c(C(F)F)n6)CC5)CC4)CC3)c21` (stereo partly drawn) [Example 110, 3-(4-(4-(1-(((1r,4r)-4-(4-(5-((cyclopropylmethyl)amino)pyrazolo[1,5-a]pyrimidin-3-yl)-1H-1,2,3-triazol-1-yl)-3-(difluoromethyl)-1H-pyrazol-1-ylcyclohexyl)methyl)piperidin-4-yl)piperazin-1-yl)3-methyl-2-oxo-2,3-dihydro-1H-benzo[d]imidazol-1-yl)piperidine-2,6-dione], the Dmax was above 80%. This compound also gave a DC50 under setting [2] below 0.5 nM.

Take `NC(=O)c1cnn2c(-c3cn(-c4cn(C5CCN(CC6CCN(c7ccc8c(c7)C(=O)N(C7CCC(=O)NC7=O)C8=O)CC6)CC5)nc4C(F)F)nn3)ccc2c1` (stereo not drawn) [Example 94, 7-(1-(3-(difluoromethyl)-1-(1-((1-(2-(2,6-dioxopiperidin-3-yl)-1,3-dioxoisoindolin-5-yl)piperidin-4-yl)methyl)piperidin-4-yl)-1H-pyrazol-4-yl)-1H-1,2,3-triazol-4-yl)pyrrolo[1,2-b]pyridazine-3-carboxamide]: where the note is “IRAK4-HiBiT, HEK293T cells, 24 h, read-out: Dmax”, the Dmax was below 60%. Further, under setting [1], the DC50 is below 0.5 nM.

`Cn1c(=O)n(C2CCC(=O)NC2=O)c2cccc(C#CCOC3CCN(C[C@H]4CC[C@H](n5cc(-n6cc(-c7ccc8cc(C(N)=O)cnn78)nn6)c(C(F)F)n5)CC4)CC3)c21` (stereo partly drawn) [Example 65] had a Dmax of 60 to 70%. This compound also returned a DC50 under setting [2] below 0.5 nM.

As for `C[C@H]1CN(c2cccc3c2n(C)c(=O)n3C2CCC(=O)NC2=O)CCN1C[C@H]1CC[C@H](n2cc(-n3cc(-c4cnn5ccc(N6CCC(C)(O)CC6)nc45)nn3)c(C(F)F)n2)CC1` (stereo partly drawn) [Example 284], the Dmax was in the range of 70 to 80%. Under setting [2], this compound registered a DC50 below 0.5 nM.

Compound `Cn1c(=O)n(C2CCC(=O)NC2=O)c2cccc(N3CCC(N4CCN(C[C@H]5CC[C@H](n6cc(-n7cc(-c8cnn9ccc(N%10CCS(=O)(=O)CC%10)nc89)nn7)c(C(F)F)n6)CC5)CC4)CC3)c21` (stereo partly drawn) [Example 111, 3-(4-(4-(((1r,4r)-4-(3-(difluoromethyl)-4-(4-(5-(1,1-dioxodimorpholinyl)pyrazolo[1,5-a]pyrimidin-3-yl)-1H-1,2,3-triazol-1-yl)-1H-pyrazol-1-ylcyclohexyl)methyl)piperazin-1-yl)piperidin-1-yl)-3-methyl-2-oxo-2,3-dihydro-1H-benzo[d]imidazol-1-yl)pyridine-2,6-dione] registered a Dmax above 80%. The DC50 under setting [2] is 0.5 to 1 nM.

`Cn1c(=O)n(C2CCC(=O)NC2=O)c2cccc(N3CC(N4CCN(C[C@H]5CC[C@H](n6cc(-n7cc(-c8ccc9cc(C(N)=O)cnn89)nn7)c(C(F)F)n6)CC5)CC4)C3)c21` (stereo partly drawn) [Example 63, 7-(1-(3-(difluoromethyl)-1-((1r,4r)-4-((4-(1-(1-(2,6-dioxopiperidin-3-yl)-3-methyl-2-oxo-2,3-dihydro-1H-benzo[d]imidazol-4-yl)azetidin-3-yl)piperazin-1-yl)methyl)cyclohexyl)-1H-pyrazol-4-yl)-1H-1,2,3-triazol-4-yl)pyrrolo[1,2-b]pyridazine-3-carboxamide] gave a Dmax of 60 to 70%. This compound also registered a DC50 under setting [2] below 0.5 nM.

As to `Cn1c(=O)n(C2CCC(=O)NC2=O)c2cccc(N3CC(N4CCN(C[C@H]5CC[C@H](n6cc(-n7cc(-c8cnn9ccc(N%10CCOCC%10)nc89)nn7)c(C(F)F)n6)CC5)CC4)C3)c21` (stereo partly drawn) [Example 42, 3-(4-(3-(4-(((1r,4r)-4-(3-(difluoromethyl)-4-(4-(5-morpholinopyrazolo[1,5-a]pyrimidin-3-yl)-1H-1,2,3-triazol-1-yl)-1H-pyrazol-1-yl)cyclohexyl)methyl)piperazin-1-yl)azetidin-1-yl)-3-methyl-2-oxo-2,3-dihydro-1H-benzo[d]imidazol-1-yl)piperidine-2,6-dione], the Dmax is below 60%. The compound also yielded a DC50 under setting [2] below 0.5 nM.

`Cn1c(=O)n(C2CCC(=O)NC2=O)c2cccc(CNC3CC4(CCN(C[C@H]5CC[C@H](n6cc(-n7cc(-c8cnn9ccc(N%10CCOCC%10)nc89)nn7)c(C(F)F)n6)CC5)CC4)C3)c21` (stereo partly drawn) [Example 10] returned a Dmax above 80%. The compound also yielded a DC50 under setting [2] below 0.5 nM.

In turn, `Cn1c(=O)n(C2CCC(=O)NC2=O)c2cccc(N3CCC4(CCN(C[C@H]5CC[C@H](n6cc(-n7cc(-c8cnn9ccc(N%10CCS(=O)(=O)CC%10)nc89)nn7)c(C(F)F)n6)CC5)CC4)CC3)c21` (stereo partly drawn) [Example 112] showed a Dmax above 80%. In addition, the DC50 under setting [2] is below 0.5 nM.

`Cn1c(=O)n(C2CCC(=O)NC2=O)c2cccc(N3CCC4(CC3)CN(C[C@H]3CC[C@H](n5cc(-n6cc(-c7cnn8ccc(N9CCOCC9)nc78)nn6)c(C(F)F)n5)CC3)CCO4)c21` (stereo partly drawn) [Example 41] gave a Dmax of 70 to 80%. The compound also showed a DC50 under setting [2] of 1 to 5 nM.

`Cn1c(=O)n(C2CCC(=O)NC2=O)c2cccc(C3CCN(C[C@H]4CC[C@H](n5cc(-n6cc(-c7cnn8ccc(N9CCOCC9)nc78)nn6)c(C(F)F)n5)CC4)CC3)c21` (stereo partly drawn) [Example 11, 3-(4-(1-(((1r,4r)-4-(3-(difluoromethyl)-4-(4-(5-morpholinopyrazolo[1,5-a]pyrimidin-3-yl)-1H-1,2,3-triazol-1-yl)-1H-pyrazol-1-yl)cyclohexyl)methyl)piperidin-4-yl)-3-methyl-2-oxo-2,3-dihydro-1H-benzo[d]imidazol-1-yl)piperidine-2,6-dione]: the Dmax was above 80%. Further, the DC50 under setting [2] was below 0.5 nM.

With `Cn1c(=O)n(C2CCC(=O)NC2=O)c2cccc(N3CC4(CCN(C[C@H]5CC[C@H](n6cc(-n7cc(-n8ccc9cc(C(N)=O)cnc98)nn7)c(C(F)F)n6)CC5)CC4)C3)c21` (stereo partly drawn) [Example 105, 1-(1-(3-(difluoromethyl)-1-((1r,4r)-4-((2-(1-(2,6-dioxopiperidin-3-yl)-3-methyl-2-oxo-2,3-dihydro-1H-benzo[d]imidazol-4-yl)-2,7-diazaspiro[3.5]non-7-yl)methyl)cyclohexyl)-1H-pyrazol-4-yl)-1H-1,2,3-triazol-4-yl)-1H-pyrrolo[2,3-b]pyridine-5-carboxamide], the Dmax was above 80%. Besides, under setting [2], the DC50 is below 0.5 nM.
